The values below come from patent US20240150365A1 (Hotspot Therapeutics, Inc., priority 2022, published 2024).

A value given as a limit tells only on which side of the number the result lay.

As usually defined, the IC50 is the concentration needed to halve the response being measured.

One test relates to NF-kB. As to the kind of experiment: NF-kB reporter assay in Jurkat cells stimulated with aCD3/aCD28/PMA. Format: cell-based. The note with it: Homo sapiens, Jurkat, Jurkat cells, 1 hr compound incubation, aCD3/aCD28/PMA stimulation 4 hr, One-Glo readout; read-out: NF-kB Reporter Assay IC50. Summed up: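 Stimulation used final aCD3 5 μg/mL, aCD28 5 μg/mL and PMA 0.03 μg/mL for 4 hr at 37° C, after 1 hr compound pretreatment of 25,000 serum-starved Jurkat cells per well. One-Glo luminescence gave IC50 values.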

In a further test the target is T1, MALT1 (Homo sapiens, UniProt Q9UDY8).
T1 construct: Avi-tagged FL MALT-1 (Pharmaron, stored at −70° C.); Avi tag
T1 sequence (Q9UDY8 1-824): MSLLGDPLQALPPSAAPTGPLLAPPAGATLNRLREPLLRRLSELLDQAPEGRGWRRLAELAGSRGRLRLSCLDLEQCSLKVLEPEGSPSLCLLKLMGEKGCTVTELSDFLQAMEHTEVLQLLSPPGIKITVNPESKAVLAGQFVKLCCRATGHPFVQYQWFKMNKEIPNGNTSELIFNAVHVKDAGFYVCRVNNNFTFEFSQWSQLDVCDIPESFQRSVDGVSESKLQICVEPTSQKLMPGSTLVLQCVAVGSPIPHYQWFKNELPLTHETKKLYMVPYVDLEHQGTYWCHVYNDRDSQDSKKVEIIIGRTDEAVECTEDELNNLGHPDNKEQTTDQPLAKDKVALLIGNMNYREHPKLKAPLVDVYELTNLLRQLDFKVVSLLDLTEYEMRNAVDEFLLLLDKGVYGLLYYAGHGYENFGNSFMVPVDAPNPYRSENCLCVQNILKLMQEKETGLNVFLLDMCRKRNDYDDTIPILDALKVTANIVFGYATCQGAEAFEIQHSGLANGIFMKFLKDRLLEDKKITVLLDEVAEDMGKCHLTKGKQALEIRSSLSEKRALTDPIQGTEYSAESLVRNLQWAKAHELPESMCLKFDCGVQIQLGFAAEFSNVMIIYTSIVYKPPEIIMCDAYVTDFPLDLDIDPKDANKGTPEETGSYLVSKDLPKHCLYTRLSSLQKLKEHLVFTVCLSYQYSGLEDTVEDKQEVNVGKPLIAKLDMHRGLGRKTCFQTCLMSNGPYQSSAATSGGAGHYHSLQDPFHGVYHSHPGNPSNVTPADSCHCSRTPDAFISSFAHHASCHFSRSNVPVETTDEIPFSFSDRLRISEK
As to the kind of experiment: MALT-1 Fluorogenic Peptide Cleavage Assay (MALT1 inhibition assay). Format: biochemical. Conditions: Avi-tagged FL MALT-1, Ac-LRSR-AMC peptide substrate, 30 min pre-incubation, 90 min reaction. Summed up:
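IC50 from sigmoidal fits of % inhibition, with fluorescence (ex 342, em 441 nm) from AMC released from the quenched LRSR peptide after 90 min at room temperature. Full-length Avi-tagged MALT1 saw compound for 30 min first; final DMSO 2%.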

Consider `Cn1ncc2cccc(NS(=O)(=O)c3ccc(-c4cccnc4)nc3)c21` [Example I-109, N-(1-Methyl-1H-Indazol-7-yl)-[2,3′-Bipyridine]-5-Sulfonamide], for which the IC50 is below 0.4 µM with NF-kB and above 2.5 µM at MALT1.
In the same order, the values of `CN(C)c1ccc(-c2ccc(S(=O)(=O)Nc3cccc4cnn(C)c34)cn2)cn1` [Example I-110, 6′-(Dimethylamino)-N-(1-Methyl-1H-Indazol-7-yl)-[2,3′-Bipyridine]-5-Sulfonamide] are below 0.4 µM and above 2.5 µM.
In the same order, the values of `COc1cccc(-c2ccc(S(=O)(=O)Nc3cccc4cnn(C)c34)cn2)n1` [Example I-111, 6′-Methoxy-N-(1-Methyl-1H-Indazol-7-yl)-[2,2′-Bipyridine]-5-Sulfonamide] are below 0.4 µM and above 2.5 µM.
In the same order, the values of `Cn1cc(-c2ccc(S(=O)(=O)Nc3cccc4cnn(C)c34)cn2)ccc1=O` [Example I-112, 1′-Methyl-N-(1-Methyl-1H-Indazol-7-yl)-6′-Oxo-1′,6′-Dihydro-[2,3′-Bipyridine]-5-Sulfonamide] are above 2.5 µM and above 2.5 µM.
For the compound `Cc1ncccc1-c1ccc(S(=O)(=O)Nc2cccc3cnn(C)c23)cn1` [Example I-113, 2′-Methyl-N-(1-Methylindazol-7-yl)-[2,3′-Bipyridine]-5-Sulfonamide], the IC50 with NF-kB was 0.4 to 1 µM; against MALT1, above 2.5 µM.
In the same order, the values of `Cc1ncncc1-c1ccc(S(=O)(=O)Nc2cccc3cnn(C)c23)cn1` [Example I-115] are above 2.5 µM and above 2.5 µM.
`Cn1ncc2cccc(NS(=O)(=O)c3ccc(-c4ccncc4)nc3)c21` [Example I-116, N-(1-METHYL-1H-INDAZOL-7-YL)-[2,4′-BIPYRIDINE]-5-SULFONAMIDE]: the IC50 was 0.4 to 1 µM with NF-kB and above 2.5 µM against MALT1.
In the same order, the values of `Cn1ccc(-c2ccc(S(=O)(=O)Nc3cccc4cnn(C)c34)cn2)cc1=O` [Example I-117, 1′-Methyl-N-(1-Methyl-1H-Indazol-7-yl)-2′-Oxo-1′,2′-Dihydro-[2,4′-Bipyridine]-5-Sulfonamide] are above 2.5 µM and above 2.5 µM.
In the same order, the values of `Cn1ncc2cccc(NS(=O)(=O)c3ccc(-c4cccc(=O)[nH]4)nc3)c21` [Example I-118, N-(1-Methyl-1H-Indazol-7-yl)-6′-Oxo-1′,6′-Dihydro-[2,2′-Bipyridine]-5-Sulfonamide] are above 2.5 µM and above 2.5 µM.
In the same order, the values of `Cc1cc(-c2ccc(S(=O)(=O)Nc3cccc4cnn(C)c34)cn2)n(C)n1` [Example I-119, 6-(2,5-Dimethylpyrazol-3-yl)-N-(1-Methyl-Indazol-7-yl)Pyridine-3-Sulfonamide] are below 0.4 µM and above 2.5 µM.
`Cn1ncc2cccc(NS(=O)(=O)c3ccc(-c4ccncc4F)nc3)c21` [Example I-120, 3′-Fluoro-N-(1-Methylindazol-7-yl)-[2,4′-Bipyridine]-5-Sulfonamide]: the IC50 with NF-kB was below 0.4 µM; against MALT1, above 2.5 µM.
In the same order, the values of `Cn1ncc2cccc(NS(=O)(=O)c3ccc(-c4cncc(Cl)c4)nc3)c21` [Example I-121, 5′-Chloro-N-(1-Methyl-1H-Indazol-7-yl)-[2,3′-Bipyridine]-5-Sulfonamide] are below 0.4 µM and above 2.5 µM.
With `Cc1ccc(-c2ccc(S(=O)(=O)Nc3cccc4cnn(C)c34)cn2)cn1` [Example I-122, 6′-Methyl-N-(1-Methyl-1H-Indazol-7-yl)-[2,3′-Bipyridine]-5-Sulfonamide], the IC50 is below 0.4 µM with NF-kB and above 2.5 µM against MALT1.
In the same order, the values of `Cc1ccncc1-c1ccc(S(=O)(=O)Nc2cccc3cnn(C)c23)cn1` [Example I-123, 4′-Methyl-N-(1-Methyl-1H-Indazol-7-yl)-2,3′-Bipyridine-5-Sulfonamide] are 0.4 to 1 µM and above 2.5 µM.
In the case of `Cc1cnn(C)c1-c1ccc(S(=O)(=O)Nc2cccc3cnn(C)c23)cn1` [Example I-124, 6-(1,4-Dimethyl-1H-Pyrazol-5-yl)-N-(1-Methyl-1H-Indazol-7-yl)Pyridine-3-Sulfonamide], the concentration for half-maximal inhibition (IC50) with NF-kB and at MALT1 was above 2.5 µM each time.
Consider `COc1nn(C)cc1-c1ccc(S(=O)(=O)Nc2cccc3cnn(C)c23)cn1` [Example I-125, 6-(3-Methoxy-1-Methyl-1H-Pyrazol-4-yl)-N-(1-Methyl-1H-Indazol-7-yl)Pyridine-3-Sulfonamide], for which the IC50 in the test on NF-kB was below 0.4 µM; against MALT1 it was above 2.5 µM.
In the same order, the values of `CCc1ccc2cnn(C)c2c1NS(=O)(=O)c1ccc(-n2nccc2C(F)(F)F)nc1` [Example I-126, N-(6-ethyl-1-methyl-1H-indazol-7-yl)-6-(5-(trifluoromethyl)-1H-pyrazol-1-yl)pyridine-3-sulfonamide] are below 0.4 µM and below 0.4 µM.
In the same order, the values of `COc1ccc2cnn(C)c2c1NS(=O)(=O)c1ccc(-n2ccc(C(F)F)n2)nc1` [Example I-127, 6-(3-(Difluoromethyl)-1H-Pyrazol-1-yl)-N-(6-Methoxy-1-Methyl-1H-Indazol-7-yl)Pyridine-3-Sulfonamide] are below 0.4 µM and below 0.4 µM.
In the same order, the values of `COc1ccc2nnn(C)c2c1NS(=O)(=O)c1ccc(-n2ccc(C(F)(F)F)n2)nc1` [Example I-128, N-(6-methoxy-1-methyl-1H-benzo[d][1,2,3]triazol-7-yl)-6-(3-(trifluoromethyl)-1H-pyrazol-1-yl)pyridine-3-sulfonamide] are 0.4 to 1 µM and 1 to 2.5 µM.
Take `COc1ccc2cnn(C)c2c1NS(=O)(=O)c1ccc(-n2cc(C)c(C)n2)nc1` [Example I-129, 6-(3,4-dimethyl-1H-pyrazol-1-yl)-N-(6-methoxy-1-methyl-1H-indazol-7-yl)pyridine-3-sulfonamide]: the IC50 with NF-kB and on MALT1 was below 0.4 µM in each case.
For `Cn1ncc2cccc(NS(=O)(=O)c3ccc(-c4cncc(C#N)c4)nc3)c21` [Example I-130, 5′-cyano-N-(1-methylindazol-7-yl)-[2,3′-bipyridine]-5-sulfonamide], the half-maximal inhibitory concentration (IC50) in the test on NF-kB is 1 to 2.5 µM; against MALT1, above 2.5 µM.
In the same order, the values of `Cc1cncc(-c2ccc(S(=O)(=O)Nc3cccc4cnn(C)c34)cn2)c1` [Example I-131, 5′-methyl-N-(1-methylindazol-7-yl)-[2,3′-bipyridine]-5-sulfonamide] are below 0.4 µM and above 2.5 µM.
`Cc1cc(-c2ccc(S(=O)(=O)Nc3cccc4cnn(C)c34)cn2)ccn1` [Example I-132, 2′-methyl-N-(1-methylindazol-7-yl)-[2,4′-bipyridine]-5-sulfonamide]: the half-maximal inhibitory concentration (IC50) is below 0.4 µM in the test on NF-kB and above 2.5 µM on MALT1.
In the same order, the values of `Cn1ncc2cccc(NS(=O)(=O)c3ccc(-c4cncnc4)nc3)c21` [Example I-133, N-(1-methylindazol-7-yl)-6-(pyrimidin-5-yl)pyridine-3-sulfonamide] are above 2.5 µM and above 2.5 µM.
In the same order, the values of `Cn1ncc2cccc(NS(=O)(=O)c3ccc(-c4cncc(F)c4)nc3)c21` [Example I-134, 5′-Fluoro-N-(1-Methyl-1H-Indazol-7-yl)-[2,3′-Bipyridine]-5-Sulfonamide] are below 0.4 µM and above 2.5 µM.
In the same order, the values of `Cc1ncc(-c2ccc(S(=O)(=O)Nc3cccc4cnn(C)c34)cn2)cn1` [Example I-135, N-(1-Methyl-1H-Indazol-7-yl)-6-(2-Methylpyrimidin-5-yl)Pyridine-3-Sulfonamide] are 0.4 to 1 µM and above 2.5 µM.
Turning to `Cn1ncc2cccc(NS(=O)(=O)c3ccc(-c4ccc(O)nc4)nc3)c21` [Example I-136, 6′-Hydroxy-N-(1-Methyl-1H-Indazol-7-yl)-[2,3′-Bipyridine]-5-Sulfonamide], the IC50 with NF-kB and at MALT1 was above 2.5 µM throughout.
Turning to `Cn1ncc2cccc(NS(=O)(=O)c3ccc(-c4cncc(S(C)(=O)=O)c4)nc3)c21` [Example I-137, N-(1-Methyl-1H-Indazol-7-yl)-5′-(Methylsulfonyl)-[2,3′-Bipyridine]-5-Sulfonamide], the half-maximal inhibitory concentration (IC50) in the test with NF-kB and on MALT1 was above 2.5 µM throughout.
